Experimental data: ChEMBL document CHEMBL5465560, “Selectivity Literature for EUbOPEN Chemogenomic Library” (2024)

What was measured:
[1] = biological target: T1, Ephrin type-A receptor 6 (Homo sapiens) (UniProt Q9UF33); experiment: Selectivity interaction (KinomeScan (DiscoverX)) EUB0000666a EPHA6; settings: at 10 µM
T1 sequence (whole entry): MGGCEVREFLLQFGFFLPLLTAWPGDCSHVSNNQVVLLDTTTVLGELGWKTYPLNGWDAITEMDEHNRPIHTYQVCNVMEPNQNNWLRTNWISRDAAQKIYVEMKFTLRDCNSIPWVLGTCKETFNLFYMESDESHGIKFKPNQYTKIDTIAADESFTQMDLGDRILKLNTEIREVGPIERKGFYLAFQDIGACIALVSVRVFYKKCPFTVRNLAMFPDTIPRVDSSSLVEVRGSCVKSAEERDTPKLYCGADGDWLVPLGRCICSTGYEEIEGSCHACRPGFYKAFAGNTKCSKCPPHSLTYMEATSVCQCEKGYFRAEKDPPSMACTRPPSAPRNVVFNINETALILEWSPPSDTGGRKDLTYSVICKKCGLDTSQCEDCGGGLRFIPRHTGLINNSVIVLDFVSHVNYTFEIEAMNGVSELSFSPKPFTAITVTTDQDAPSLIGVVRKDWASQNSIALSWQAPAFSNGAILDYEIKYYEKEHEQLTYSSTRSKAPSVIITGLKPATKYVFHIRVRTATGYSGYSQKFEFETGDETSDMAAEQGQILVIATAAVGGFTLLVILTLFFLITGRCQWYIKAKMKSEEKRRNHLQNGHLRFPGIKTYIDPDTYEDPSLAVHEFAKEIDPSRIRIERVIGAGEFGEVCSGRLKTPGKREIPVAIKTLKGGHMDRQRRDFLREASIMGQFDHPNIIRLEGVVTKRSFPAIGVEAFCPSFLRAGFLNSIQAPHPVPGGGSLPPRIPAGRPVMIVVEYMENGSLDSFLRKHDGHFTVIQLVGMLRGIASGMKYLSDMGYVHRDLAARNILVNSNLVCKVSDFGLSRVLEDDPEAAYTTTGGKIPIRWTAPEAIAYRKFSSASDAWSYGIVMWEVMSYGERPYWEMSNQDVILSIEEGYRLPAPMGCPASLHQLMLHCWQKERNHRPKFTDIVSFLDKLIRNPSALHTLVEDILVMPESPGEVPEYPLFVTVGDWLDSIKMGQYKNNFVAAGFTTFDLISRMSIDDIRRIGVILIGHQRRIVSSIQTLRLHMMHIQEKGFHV

[2] = biological target: BMP-2-inducible protein kinase (Homo sapiens) (UniProt Q9NSY1); experiment: Selectivity interaction (KinomeScan (DiscoverX)) EUB0000666a BMP2K; settings: at 10 µM
[3] = biological target: Serine/threonine-protein kinase pim-3 (Homo sapiens) (UniProt Q86V86); experiment: Selectivity interaction (KinomeScan (DiscoverX)) EUB0001049a PIM3; settings: at 1 µM
[4] = biological target: Ribosomal protein S6 kinase alpha-5 (Homo sapiens) (UniProt O75582); experiment: Selectivity interaction (KinomeScan (DiscoverX)) EUB0000877a RPS6KA5; settings: at 10 µM
[5] = biological target: Tyrosine-protein kinase HCK (Homo sapiens) (UniProt P08631); experiment: Selectivity interaction (ProQinase) EUB0000171b HCK
[6] = biological target: Homeodomain-interacting protein kinase 1 (Homo sapiens, UniProt Q86Z02); experiment: Selectivity interaction (KinomeScan (DiscoverX)) EUB0001619a HIPK1; settings: at 1 µM
[7] = biological target: T2, Non-receptor tyrosine-protein kinase TNK1 (Homo sapiens) (UniProt Q13470); experiment: Selectivity interaction (KinomeScan (DiscoverX)) EUB0000607a TNK1; settings: at 10 µM
T2 sequence (whole entry): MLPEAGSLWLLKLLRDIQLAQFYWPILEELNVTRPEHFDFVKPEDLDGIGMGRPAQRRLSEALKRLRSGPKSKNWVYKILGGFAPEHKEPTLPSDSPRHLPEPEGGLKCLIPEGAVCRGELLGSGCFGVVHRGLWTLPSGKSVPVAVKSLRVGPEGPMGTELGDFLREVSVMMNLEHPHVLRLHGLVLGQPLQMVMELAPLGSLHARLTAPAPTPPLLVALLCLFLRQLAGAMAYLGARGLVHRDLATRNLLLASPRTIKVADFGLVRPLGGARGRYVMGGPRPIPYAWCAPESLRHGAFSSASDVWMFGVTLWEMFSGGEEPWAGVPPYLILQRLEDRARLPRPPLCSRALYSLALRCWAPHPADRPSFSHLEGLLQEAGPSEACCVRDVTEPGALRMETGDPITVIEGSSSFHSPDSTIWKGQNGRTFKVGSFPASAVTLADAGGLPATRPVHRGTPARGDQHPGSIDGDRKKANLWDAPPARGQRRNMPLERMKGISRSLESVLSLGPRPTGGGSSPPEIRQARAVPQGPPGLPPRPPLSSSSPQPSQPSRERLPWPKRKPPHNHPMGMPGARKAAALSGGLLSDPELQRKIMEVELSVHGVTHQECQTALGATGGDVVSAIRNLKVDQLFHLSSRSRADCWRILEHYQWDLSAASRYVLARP

[8] = biological target: T3, Tyrosine-protein kinase Tec (Homo sapiens) (UniProt P42680); experiment: Selectivity interaction (KinomeScan (DiscoverX)) EUB0000607a TEC; settings: at 10 µM
T3 sequence (whole entry): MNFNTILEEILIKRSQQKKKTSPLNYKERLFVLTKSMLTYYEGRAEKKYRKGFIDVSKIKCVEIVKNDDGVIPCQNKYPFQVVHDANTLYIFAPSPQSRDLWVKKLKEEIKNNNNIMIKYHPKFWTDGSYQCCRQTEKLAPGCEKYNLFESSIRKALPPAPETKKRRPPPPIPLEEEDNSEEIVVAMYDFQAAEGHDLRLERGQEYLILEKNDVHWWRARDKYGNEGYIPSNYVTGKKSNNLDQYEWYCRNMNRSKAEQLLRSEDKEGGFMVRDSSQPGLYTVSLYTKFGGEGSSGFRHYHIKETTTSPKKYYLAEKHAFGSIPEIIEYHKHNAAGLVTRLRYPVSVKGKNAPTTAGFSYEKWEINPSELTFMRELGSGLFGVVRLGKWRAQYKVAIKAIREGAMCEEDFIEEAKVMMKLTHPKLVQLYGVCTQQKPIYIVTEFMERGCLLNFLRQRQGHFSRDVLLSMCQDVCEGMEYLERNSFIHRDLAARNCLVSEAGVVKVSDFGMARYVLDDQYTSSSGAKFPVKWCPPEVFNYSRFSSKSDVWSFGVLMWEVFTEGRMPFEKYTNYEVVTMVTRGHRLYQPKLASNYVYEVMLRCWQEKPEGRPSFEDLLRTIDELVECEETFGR

Sequence of Tyrosine-protein kinase HCK (Homo sapiens) (P08631 2-526 limits assumed): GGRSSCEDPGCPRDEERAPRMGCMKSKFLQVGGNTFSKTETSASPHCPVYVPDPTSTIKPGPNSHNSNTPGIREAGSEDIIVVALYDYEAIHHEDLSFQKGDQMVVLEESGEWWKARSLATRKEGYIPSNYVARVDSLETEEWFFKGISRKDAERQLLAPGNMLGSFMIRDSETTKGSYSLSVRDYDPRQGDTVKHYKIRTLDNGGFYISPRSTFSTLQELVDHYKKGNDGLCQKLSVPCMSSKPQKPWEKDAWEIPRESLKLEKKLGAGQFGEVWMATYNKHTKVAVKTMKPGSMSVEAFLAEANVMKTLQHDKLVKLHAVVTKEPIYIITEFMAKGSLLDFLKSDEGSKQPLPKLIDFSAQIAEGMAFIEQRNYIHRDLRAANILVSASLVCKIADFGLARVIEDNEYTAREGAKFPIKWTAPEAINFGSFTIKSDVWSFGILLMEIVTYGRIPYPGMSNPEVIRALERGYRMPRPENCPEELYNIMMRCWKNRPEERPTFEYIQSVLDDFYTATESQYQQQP
Sequence of Ribosomal protein S6 kinase alpha-5 (Homo sapiens) (O75582 whole entry, looked up): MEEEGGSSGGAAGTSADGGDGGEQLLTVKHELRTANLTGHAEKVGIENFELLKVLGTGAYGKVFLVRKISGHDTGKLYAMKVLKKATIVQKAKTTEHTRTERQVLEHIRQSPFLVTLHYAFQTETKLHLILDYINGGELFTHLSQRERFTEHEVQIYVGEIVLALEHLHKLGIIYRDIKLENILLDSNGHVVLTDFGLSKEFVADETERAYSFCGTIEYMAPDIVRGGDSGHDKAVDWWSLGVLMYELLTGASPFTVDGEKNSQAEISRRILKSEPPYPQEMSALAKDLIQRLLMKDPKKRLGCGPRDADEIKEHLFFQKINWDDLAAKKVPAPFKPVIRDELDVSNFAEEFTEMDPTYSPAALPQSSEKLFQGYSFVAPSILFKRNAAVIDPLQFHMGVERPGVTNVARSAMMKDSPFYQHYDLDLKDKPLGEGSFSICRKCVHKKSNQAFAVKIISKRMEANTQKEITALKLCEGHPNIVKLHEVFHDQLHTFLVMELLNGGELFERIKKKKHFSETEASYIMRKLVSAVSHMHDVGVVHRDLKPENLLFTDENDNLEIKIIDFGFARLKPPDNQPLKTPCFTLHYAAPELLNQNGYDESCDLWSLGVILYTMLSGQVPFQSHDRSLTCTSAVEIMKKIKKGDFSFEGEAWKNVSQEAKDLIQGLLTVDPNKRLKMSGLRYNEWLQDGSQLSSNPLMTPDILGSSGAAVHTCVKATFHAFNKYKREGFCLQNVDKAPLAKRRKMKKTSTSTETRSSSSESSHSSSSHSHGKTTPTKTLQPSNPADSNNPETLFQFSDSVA
Sequence of Homeodomain-interacting protein kinase 1 (Q86Z02 whole entry, looked up): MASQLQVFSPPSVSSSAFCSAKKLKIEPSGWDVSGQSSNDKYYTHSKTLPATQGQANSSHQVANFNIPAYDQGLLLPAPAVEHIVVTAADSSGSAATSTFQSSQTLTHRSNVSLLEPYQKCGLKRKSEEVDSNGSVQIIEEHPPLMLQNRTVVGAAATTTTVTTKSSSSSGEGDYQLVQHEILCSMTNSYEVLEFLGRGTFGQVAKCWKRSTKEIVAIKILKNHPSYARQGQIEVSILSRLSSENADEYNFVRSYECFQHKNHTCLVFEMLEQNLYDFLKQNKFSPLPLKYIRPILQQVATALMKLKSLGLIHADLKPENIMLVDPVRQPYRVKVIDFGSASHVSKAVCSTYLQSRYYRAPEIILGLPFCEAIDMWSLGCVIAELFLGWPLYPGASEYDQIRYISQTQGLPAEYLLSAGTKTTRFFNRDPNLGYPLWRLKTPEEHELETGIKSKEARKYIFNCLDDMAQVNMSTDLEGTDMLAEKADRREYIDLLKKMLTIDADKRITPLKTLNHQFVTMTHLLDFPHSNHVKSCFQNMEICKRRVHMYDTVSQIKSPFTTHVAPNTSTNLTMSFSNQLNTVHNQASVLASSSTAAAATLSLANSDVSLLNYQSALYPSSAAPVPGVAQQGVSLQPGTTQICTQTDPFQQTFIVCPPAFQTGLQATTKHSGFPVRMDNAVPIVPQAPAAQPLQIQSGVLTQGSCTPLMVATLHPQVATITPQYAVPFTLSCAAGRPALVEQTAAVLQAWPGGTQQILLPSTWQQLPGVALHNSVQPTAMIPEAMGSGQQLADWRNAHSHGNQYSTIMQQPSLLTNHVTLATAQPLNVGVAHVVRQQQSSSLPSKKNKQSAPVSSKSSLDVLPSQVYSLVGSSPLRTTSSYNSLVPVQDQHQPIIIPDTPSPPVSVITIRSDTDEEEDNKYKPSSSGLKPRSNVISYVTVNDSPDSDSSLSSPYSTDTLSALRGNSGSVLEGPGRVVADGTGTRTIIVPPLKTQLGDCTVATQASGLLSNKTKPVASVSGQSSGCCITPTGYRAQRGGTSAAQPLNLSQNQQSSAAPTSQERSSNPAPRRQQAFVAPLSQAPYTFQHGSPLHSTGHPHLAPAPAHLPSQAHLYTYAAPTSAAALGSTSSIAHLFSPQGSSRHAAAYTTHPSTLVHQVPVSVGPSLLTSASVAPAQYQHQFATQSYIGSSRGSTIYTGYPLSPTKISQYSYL
Sequence of BMP-2-inducible protein kinase (Homo sapiens) (Q9NSY1 whole entry, looked up): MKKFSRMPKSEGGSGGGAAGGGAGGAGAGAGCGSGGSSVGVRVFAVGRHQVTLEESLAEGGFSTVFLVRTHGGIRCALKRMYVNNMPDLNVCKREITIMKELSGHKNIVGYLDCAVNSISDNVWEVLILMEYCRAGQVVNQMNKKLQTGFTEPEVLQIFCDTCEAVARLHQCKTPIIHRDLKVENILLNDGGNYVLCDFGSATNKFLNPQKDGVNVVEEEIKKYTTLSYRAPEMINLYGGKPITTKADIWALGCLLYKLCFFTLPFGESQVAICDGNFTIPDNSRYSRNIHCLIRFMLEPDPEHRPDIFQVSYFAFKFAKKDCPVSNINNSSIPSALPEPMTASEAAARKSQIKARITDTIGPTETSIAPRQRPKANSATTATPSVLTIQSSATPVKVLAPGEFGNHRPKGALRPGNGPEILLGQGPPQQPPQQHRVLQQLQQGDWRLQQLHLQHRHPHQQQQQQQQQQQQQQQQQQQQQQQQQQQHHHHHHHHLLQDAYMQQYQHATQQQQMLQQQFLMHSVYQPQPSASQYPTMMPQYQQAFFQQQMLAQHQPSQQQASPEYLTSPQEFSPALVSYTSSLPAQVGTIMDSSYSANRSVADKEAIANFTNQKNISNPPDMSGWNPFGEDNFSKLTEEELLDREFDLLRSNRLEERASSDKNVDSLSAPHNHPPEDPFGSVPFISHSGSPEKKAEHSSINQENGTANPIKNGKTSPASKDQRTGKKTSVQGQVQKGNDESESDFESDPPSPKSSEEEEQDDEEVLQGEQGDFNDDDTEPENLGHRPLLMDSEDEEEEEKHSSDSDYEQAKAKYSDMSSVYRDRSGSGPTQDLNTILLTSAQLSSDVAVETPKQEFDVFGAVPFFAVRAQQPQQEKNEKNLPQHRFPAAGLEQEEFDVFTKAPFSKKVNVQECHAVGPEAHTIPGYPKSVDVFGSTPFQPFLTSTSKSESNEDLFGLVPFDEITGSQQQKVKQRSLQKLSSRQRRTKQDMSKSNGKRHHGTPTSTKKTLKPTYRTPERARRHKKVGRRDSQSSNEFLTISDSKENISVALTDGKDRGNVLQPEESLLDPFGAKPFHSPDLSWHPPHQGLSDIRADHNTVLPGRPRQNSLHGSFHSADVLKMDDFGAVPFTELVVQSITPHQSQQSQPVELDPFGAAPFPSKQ

O=C(NOC[C@H](O)CO)c1ccc(F)c(F)c1Nc1ccc(I)cc1F
% of control [1]: 94% | % of control [2]: 91%

COc1cc(Nc2nc(C)cc(-c3cnn4nc(OC)ccc34)n2)cc(C(F)(F)F)c1
% of control [3]: 83%

CCC(=O)N1CC[C@H](Nc2ncnc3c2CN(c2cnc(OC)c(C(F)(F)F)c2)CC3)C1 [LENIOLISIB]
% of inhibition [4]: 76%

C=CC(=O)Nc1cccc(C(=O)Nc2ccc(Nc3cc(-c4[nH]c(SC)nc4C)ccn3)cc2)c1
% of control ([5]; at 1 µM): 105% | % of control ([5]; at 5 µM): 88%

N#Cc1cccc(-c2c[nH]c3ncnc(N4CCOCC4)c23)c1
% of control [6]: 77%

CNC(=O)Nc1ccc(-c2nc(N3CC4CCC(C3)O4)c3cnn(C4CCC5(CC4)OCCO5)c3n2)cc1
% of control [7]: 78% | % of control [8]: 84%
